The values that follow come from patent US20240207292A1, “BORONIC ACID COMPOUNDS, COMPOSITIONS AND METHODS” (Trustees of Tufts College, priority 2021, published 2024).

Holding throughout (type): biochemical
Experiment [1] concerns the target recombinant human fibroblast activation protein (FAP) (Homo sapiens (Human), UniProt Q12884). Kind of experiment: In vitro assay fibroblast activation protein IC50 (Example 21). As to the method:
(§1) The purpose of this assay is to determine the IC50 of various inhibitors against recombinant human dipeptidyl peptidase IV (DPPIV), fibroblast activation protein (FAP) or prolyl oligopeptidase (PREP).
(§2) The assays are conducted in the following steps: • 1 Dissolve the compound in DMSO to a final concentration of 100 mM. From this, prepare a 1 mM stock at pH 7.5 in 50 mM Tris, 140 mM NaCl Buffer (FAP)/pH 7.5 in 25 mM Tris, 250 mM NaCl Buffer/[…]. • 2. Serial dilute (1:10) the 1 mM compound stocks prepared previously into the appropriate assay buffer (FAP: 50 mM Tris, 140 mM NaCl, pH 7.5/PREP: 25 mM Tris, 0.25 M NaCl, pH 7.5/DPPIV: 25 mM Tris, pH 8.0) to one row of a 96-well plate. • 3. […] Dilute the enzymes into their appropriate assay buffers. The final enzyme concentrations should be 0.1, 1.2, and 0.6 nM for DPPIV, FAP and PREP respectively. Add 180 μL to each well needed in columns 2-10. Column 1(A,B,C) should be prepared with 200 μl of appropriate assay buffer as control. Column 1(D,E,F,G,H) should be prepared with 20 μl of appropriate assay buffer and 180 ul enzyme as no inhibitor control. • 5. Add 20 μL of the compound of interest from the dilution plate prepared in step 2 to columns 2-10 of the assay plate where appropriate. Each sample should be tested in triplicate. Allow this to incubate for 10 minutes at room temperature, shaking the plate for the first two minutes. • 6. Add 10 μL of 20× substrate prepared in step 3 to each well and allow this to incubate for 15 minutes at room temperature, shaking the plate for the first two minutes. • 7. Read the fluorescence at λex: 380, λem: 460. (DPcore=[dAla|dSer|Gly]-[boroPro|Pro-nitrile], XXaa=alpha-amino acid)

Experiment [2] deals with recombinant human prolyl oligopeptidase (PREP) (Homo sapiens (Human), UniProt P48147). Kind of experiment: In vitro assay prolyl oligopeptidase IC50 (Example 21). Here is the method: as §1, §2
The target of experiment [3] is recombinant human dipeptidyl peptidase IV (DPPIV) (Homo sapiens (Human), UniProt P27487). Kind of experiment: In vitro assay dipeptidyl peptidase IV IC50 (Example 21). Here is the method: as §1, §2

The structures appear in SMILES notation. “And” between values parts separate entries of the source, which are not always exact repeats. Equal values may be shown once. Read-outs that look alike come from different tables or passages of the source. Square brackets hold non-standard residues; d marks the D form. Peptide text beside a SMILES is read from it. * marks the point of attachment. DOTAGA = O=C(O)CN1CCN(CC(=O)O)CCN(C(CCC(=O)*)C(=O)O)CCN(CC(=O)O)CC1; X2 = O=C(O)CN1CCCN(CC(=O)O)CCN(CC(=O)*)CCCN(CC(=O)O)CC1; boroPro = OB(O)[C@@H]1CCCN1* Bounds are passed on as bounds.

recombinant human prolyl oligopeptidase (PREP), sequence (P48147 whole entry): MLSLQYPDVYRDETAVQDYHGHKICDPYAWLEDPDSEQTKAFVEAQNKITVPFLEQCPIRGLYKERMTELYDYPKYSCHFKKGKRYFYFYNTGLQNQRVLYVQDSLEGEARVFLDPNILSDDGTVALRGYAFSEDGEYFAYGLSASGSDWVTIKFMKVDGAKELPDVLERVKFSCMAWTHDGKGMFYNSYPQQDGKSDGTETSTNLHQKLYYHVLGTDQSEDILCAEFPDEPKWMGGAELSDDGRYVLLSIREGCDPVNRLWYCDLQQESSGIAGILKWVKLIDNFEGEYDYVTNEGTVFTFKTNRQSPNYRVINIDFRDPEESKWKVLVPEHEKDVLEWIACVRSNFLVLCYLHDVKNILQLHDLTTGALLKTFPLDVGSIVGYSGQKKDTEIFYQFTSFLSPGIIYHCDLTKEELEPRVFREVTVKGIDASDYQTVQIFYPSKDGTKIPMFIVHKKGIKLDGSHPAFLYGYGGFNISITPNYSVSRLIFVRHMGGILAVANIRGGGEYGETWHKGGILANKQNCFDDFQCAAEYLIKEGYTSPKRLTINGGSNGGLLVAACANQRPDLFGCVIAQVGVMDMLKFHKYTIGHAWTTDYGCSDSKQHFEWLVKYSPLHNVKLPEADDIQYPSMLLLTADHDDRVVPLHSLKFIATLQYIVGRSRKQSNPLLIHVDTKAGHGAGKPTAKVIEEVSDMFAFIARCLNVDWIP
recombinant human dipeptidyl peptidase IV (DPPIV), sequence (P27487 whole entry): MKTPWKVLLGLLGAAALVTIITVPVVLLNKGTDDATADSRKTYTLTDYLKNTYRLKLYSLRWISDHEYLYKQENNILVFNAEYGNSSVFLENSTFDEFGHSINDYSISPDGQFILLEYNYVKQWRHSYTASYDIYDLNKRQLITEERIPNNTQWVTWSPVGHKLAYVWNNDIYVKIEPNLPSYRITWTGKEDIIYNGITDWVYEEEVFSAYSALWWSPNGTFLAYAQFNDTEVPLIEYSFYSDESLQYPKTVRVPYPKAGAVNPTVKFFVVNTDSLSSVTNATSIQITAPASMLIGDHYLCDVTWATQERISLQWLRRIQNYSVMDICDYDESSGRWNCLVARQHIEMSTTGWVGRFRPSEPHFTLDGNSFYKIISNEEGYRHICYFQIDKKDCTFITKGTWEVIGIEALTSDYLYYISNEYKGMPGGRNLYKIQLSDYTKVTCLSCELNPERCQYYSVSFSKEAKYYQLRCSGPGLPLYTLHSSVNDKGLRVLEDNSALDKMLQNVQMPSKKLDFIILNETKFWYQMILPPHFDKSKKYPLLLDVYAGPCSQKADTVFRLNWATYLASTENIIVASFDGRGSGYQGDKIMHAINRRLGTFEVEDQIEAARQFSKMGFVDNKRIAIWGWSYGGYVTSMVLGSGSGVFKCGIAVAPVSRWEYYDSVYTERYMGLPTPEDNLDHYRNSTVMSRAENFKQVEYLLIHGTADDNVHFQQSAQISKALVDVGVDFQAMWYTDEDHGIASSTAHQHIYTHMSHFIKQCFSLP
recombinant human fibroblast activation protein (FAP), sequence (Q12884 whole entry): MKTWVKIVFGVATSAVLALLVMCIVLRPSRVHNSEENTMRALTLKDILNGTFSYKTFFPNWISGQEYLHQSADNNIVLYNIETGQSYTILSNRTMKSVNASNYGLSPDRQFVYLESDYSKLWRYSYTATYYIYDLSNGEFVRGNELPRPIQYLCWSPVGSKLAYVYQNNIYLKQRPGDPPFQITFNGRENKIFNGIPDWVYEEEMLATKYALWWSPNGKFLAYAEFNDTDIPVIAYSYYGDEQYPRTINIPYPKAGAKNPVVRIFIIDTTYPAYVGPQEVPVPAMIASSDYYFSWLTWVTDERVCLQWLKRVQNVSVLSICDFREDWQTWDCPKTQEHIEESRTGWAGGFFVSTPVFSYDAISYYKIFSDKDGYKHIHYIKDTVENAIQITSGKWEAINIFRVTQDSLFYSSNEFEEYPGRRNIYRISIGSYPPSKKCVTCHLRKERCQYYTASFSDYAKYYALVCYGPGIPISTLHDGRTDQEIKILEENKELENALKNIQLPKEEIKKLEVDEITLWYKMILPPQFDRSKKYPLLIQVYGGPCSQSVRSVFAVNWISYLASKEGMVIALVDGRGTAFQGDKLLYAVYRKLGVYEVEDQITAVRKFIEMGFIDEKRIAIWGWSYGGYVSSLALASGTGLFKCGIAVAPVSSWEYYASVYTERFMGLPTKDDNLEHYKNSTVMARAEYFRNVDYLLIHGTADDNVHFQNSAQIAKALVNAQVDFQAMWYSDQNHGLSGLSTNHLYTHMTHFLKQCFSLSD

Regarding `C[C@@H](NC(=O)c1ccc(NNC(=O)CCCCC[N+]2=C(/C=C/C3=C(Oc4ccc(S(=O)(=O)O)cc4)C(=C/C=C4/N(CCCCS(=O)(=O)O)c5ccc(S(=O)(=O)O)cc5C4(C)C)/CCC3)C(C)(C)c3cc(S(=O)(=O)O)ccc32)nc1)C(=O)N1CCC[C@H]1B(O)O` [4613 B], the IC50 in experiment [1] was 8.8 nM and 10 nM; in experiment [2] it was 390 nM; in experiment [3], more than 100000 nM.

`C[C@@H](NC(=O)c1ccc(NNC(=O)CNC(=O)CN2CCN3CCN4CCN(CC2)CC(=O)[O][Ga]([O]C(=O)C3)[O]C(=O)C4)cc1)C(=O)N1CCC[C@H]1B(O)O` [6487GA]: the concentration for half-maximal inhibition (IC50) in experiment [1] came out at 20.8 nM; in experiment [2], 1200 nM.

For the molecule `C[C@@H](NC(=O)c1ccc(NC(=O)CN2CCN3CCN4CCN(CC2)CC(=O)[O][Lu]([O]C(=O)C3)[O]C(=O)C4)cc1)C(=O)N1CCC[C@H]1B(O)O` [6572LU], the half-maximal inhibitory concentration (IC50) was 9.5 nM in experiment [1] and 891 nM in experiment [2].

Turning to `C[C@@H](NC(=O)c1ccc(NNC(=O)CNC(=O)CN2CCN3CCN4CCN(CC2)CC(=O)[O][Lu]([O]C(=O)C3)[O]C(=O)C4)cc1)C(=O)N1CCC[C@H]1B(O)O` [6487LU], the results for the IC50 in experiment [1] and in experiment [2] were 8.8 nM and 34 nM, respectively.

On to `CC(C)[C@H](NC(=O)CNC(=O)CNC(=O)CCC(C(=O)O)N1CCN(CC(=O)O)CCN(CC(=O)O)CCN(CC(=O)O)CC1)C(=O)N[C@H](C)C(=O)N1CCC[C@H]1B(O)O` (stereo partly drawn) [compound 6794] ({DOTAGA}-GGV[dA]-boroPro), for which the IC50 in experiment [1] (Z-Gly-Pro-AMC, 1.2 nM enzyme) worked out at 33 nM; in experiment [2] (Z-Gly-Pro-AMC, 0.6 nM enzyme) it was 17400 nM.

As for `C[C@@H](NC(=O)[C@H]1CC[C@H](CNC(=O)CN2CCN3CCN4CCN(CC2)CC(=O)[O][Lu]([O]C(=O)C3)[O]C(=O)C4)CC1)C(=O)N1CCC[C@H]1B(O)O` [6952 LU], the IC50 in experiment [1] (Z-Gly-Pro-AMC, 1.2 nM enzyme) was 14 nM; in experiment [2] (Z-Gly-Pro-AMC, 0.6 nM enzyme), 21000 nM; in experiment [3] (Gly-Pro-AMC, 0.1 nM enzyme) it was more than 100000 nM.

As to `C[C@@H](NC(=O)c1ccc(NNC(=O)CN2CCN3CCN4CCN(CC2)CC(=O)[O][Gd]([O]C(=O)C3)[O]C(=O)C4)nc1)C(=O)N1CCC[C@H]1B(O)O` [4536GD], the figures for the IC50 in experiment [1], in experiment [2] and in experiment [3] were 450 nM, more than 100000 nM and more than 100000 nM, respectively.

Take `C[C@@H](NC(=O)c1ccc(NNC(=O)CN2CCN(CC(=O)O)CCN(CC(=O)O)CCN(CC(=O)O)CC2)nc1)C(=O)N1CCC[C@H]1B(O)O` [compound 4536]: the results for the IC50 in experiment [1], in experiment [2] and in experiment [3] were 9 nM, 50 nM and 84000 nM, respectively.

For `CC(C)[C@H](NC(=O)CNC(=O)CCC(C(=O)O)N1CCN(CC(=O)O)CCN(CC(=O)O)CCN(CC(=O)O)CC1)C(=O)N[C@H](C)C(=O)N1CCC[C@H]1B(O)O` (stereo partly drawn) [compound 6795], the IC50 in experiment [1] (Z-Gly-Pro-AMC, 1.2 nM enzyme) was found to be 8.9 nM; in experiment [2] (Z-Gly-Pro-AMC, 0.6 nM enzyme) it was 5520 nM.

As to `C[C@@H](NC(=O)c1ccc(NNC(=O)CCCCCNC(=O)CN2CCN3CCN4CCN(CC2)CC(=O)[O][Lu]([O]C(=O)C3)[O]C(=O)C4)nc1)C(=O)N1CCC[C@H]1B(O)O` [6609LU], the IC50 in experiment [1] turned out to be 1 nM; in experiment [2] it was 60 nM.

On to `CC(C)[C@H](NC(=O)CNC(=O)CNC(=O)CN1CCCN(CC(=O)O)CCN(CC(=O)O)CCCN(CC(=O)O)CC1)C(=O)N[C@@H](C)C(=O)N1CCC[C@H]1B(O)O` [6522L] (X2-GGVA-boroPro), for which the IC50 in experiment [1] (Z-Gly-Pro-AMC, 1.2 nM enzyme) is more than 100000 nM; in experiment [2] (Z-Gly-Pro-AMC, 0.6 nM enzyme) it was 7.6 nM; in experiment [3] (Gly-Pro-AMC, 0.1 nM enzyme) it was 3400 nM.

Consider `C[C@@H](NC(=O)c1ccc(NC(=O)CN2CCN3CCN4CCN(CC2)CC(=O)[O][Ga]([O]C(=O)C3)[O]C(=O)C4)cc1)C(=O)N1CCC[C@H]1B(O)O` [6572GA], for which the IC50 was determined as 25 nM in experiment [1] and 234 nM in experiment [2].

`C[C@@H](NC(=O)CN1CCN(CC(=O)O)CCN(CC(=O)O)CCN(CC(=O)O)CC1)C(=O)N1CCC[C@H]1B(O)O` [compound 4535]: the half-inhibitory concentration (IC50) is 290 nM in experiment [1] (Z-Gly-Pro-AMC, 1.2 nM enzyme) and more than 10000 nM in experiment [2] (Z-Gly-Pro-AMC, 0.6 nM enzyme).

In the case of `C[C@@H](NC(=O)c1ccc(NNC(=O)CCCCCNC(=O)CN2CCN3CCN4CCN(CC2)CC(=O)[O][Lu]([CH2]C(=O)C3)[O]C(=O)C4)nc1)C(=O)N1CCC[C@H]1B(O)O` [6958LU], the IC50 in experiment [1] was found to be 1.1 nM; in experiment [2] it was 155 nM.

One may read the IC50 as the point on the concentration scale where inhibition reaches its midpoint.
